Experimental data: patent US20240415845A1, “Compositions of Iboga Alkaloids and Methods of Treatment” (priority 2022, published 2024)
“And” between values parts separate entries of the source, which are not always exact repeats. Identical values can stand only once.

Test system: special operations veterans with combat and/or blast exposure
Assay: Clinician-Administered PTSD Scale for DSM-5 (CAPS-5)
Type: in vivo, human
Source text: The pre-specified primary outcome was change in the World Health Organization Disability Assessment Schedule 2.0 (WHODAS) (Gold L. H. et al., J. Am. Acad. Psychiatry Law 42, 9 (2014)) from baseline to post-treatment, with change from baseline to the one-month follow-up a secondary outcome. Additional pre-specified secondary outcomes included post-treatment changes on the Clinician Administered PTSD Scale (CAPS-5; Weathers, F. W. et al., Psychol. Assess., 30, 383-395 (2018)), Montgomery-Åsberg Depression Rating Scale (MADRS; Montgomery, S. A., Br. J. Psychiatry J. Ment. Sci., 134, 382-389 (1979)) and the Hamilton-Anxiety Rating Scale (HAM-A; Bruss, G. S., et al., Psychiatry Res., 53, 191-202 (1994)). […] An additional dose of magnesium was administered approximately 12 hours later. To assess the significance of post-treatment changes, linear mixed effects (LME) models were used for each outcome measure. False Discovery Rate (FDR; Benjamini, Y. et al., J. R. Stat. Soc. Ser. B Methodol., 57, 289-300 (1995)) was applied to correct for multiple comparisons.
To further assess changes in comorbid psychiatric symptoms identified by the models, mean percent reduction, response rate, and remission rate according to the CAPS-5, MADRS and HAM-A (Table 1) were calculated. Response on the CAPS-5, MADRS, and HAM-A was defined as a reduction of at least 10 points (Mitchell, J. M. et al., Nat. Med. 27, 1025-1033(2021)), 50% (Leucht, S. et al., J. Affect. Disord. 210, 287-293 (2017)), and 50% (McIntyre, A. et al., Depress. Anxiety 24, 487-494 (2007)), respectively; remission as loss of diagnosis and a total score below 12 (Mitchell, J. M. et al. supra), <8 (Leucht, S. et al. supra), and <8(McIntyre, A. et al., supra), respectively. One participant's baseline scores met criteria for remission in all three scales and so were excluded from the calculation of response and remission rates, leaving 29 participants in these specific analyses.
With subjects in the fasting state, an intravenous infusion of 1 gram of magnesium sulfate was administered 1-2 hours prior to treatment. […] Medical staff (MD, RN, or EMT) were onsite at a ratio of at least 1 staff per 2 patients throughout treatment for monitoring and management, but no specific coaching or psychological support was provided during treatment.
Clinician administered scales included CAPS-5 (Clinician-administered PTSD Scale for DSM-5), which is a gold standard assessment of PTSD symptom severity; MADRS (Montgomery-Asberg Depression Rating Scale), a measure for depressive symptom severity: and Hamilton-Anxiety Rating Scale (HAM-A) (Shear, M. K. et al., Depress. Anxiety 13, 166-178 (2001)) a measure for anxiety symptom severity: SCID-5 (Structured Clinical Interview for DSM-5) Overview for a historical and environmental context of symptom presentation: MINI DSM-5 (Mini International Neuropsychiatric Interview from DSM-5) for a structured psychodiagnostics assessment: BAT-L (Boston Assessment of TBI-Lifetime) for a lifetime history of TBI and blast exposure: and Ohio State University TBI Identification Method (Short Form) for a lifetime history of TBI. MADRS testing provides an indication of depressive symptoms, CAPS-5 provides an indication of PTSD and SIGH-A provides an indication of anxiety. Collectively these overlap to provide indication of mood, concentration, sleep and tension.
For the CAPS-5, the test version with a […] structured interview of PTSD symptoms over the past week was used, using a 0 (“Absent”) to 4 (“Extreme/Incapacitating”) scale, with possible total scores ranging from 0) to 80. The score range 23 to 34 is considered moderate PTSD while a higher score represents severe PTSD (Weathers, F. W. et al., Psychol. Assess. 30, 383-395 (2018)).

[1] = 1-mo. post, only participants meeting relevant MINI diagnostic criteria
[2] = 1-mo. post, only participants with mild TBI
[3] = 1-wk. post, only participants meeting relevant MINI diagnostic criteria
[4] = 1-wk. post, only participants with mild TBI

SMILES: CCC1CC2CC3c4[nH]c5ccc(OC)cc5c4CCN(C2)C13 (stereo not shown) [ibogaine, Ibogaine]
- CAPS-5 % Reduction vs Baseline [1]: 86% ± 19%
- CAPS-5 Remission Rate [1]: 83%
- CAPS-5 Response Rate [1]: 100%
- CAPS-5 score (1-mo. post, only participants meeting relevant MINI diagnostic criteria at baseline (N 23), baseline 35.7 ± 11.0): 6.0
- CAPS-5 % Reduction vs Baseline [2]: 88% ± 17%
- CAPS-5 Remission Rate [2]: 85%
- CAPS-5 Response Rate [2]: 100%
- CAPS-5 score (1-mo. post, only participants with mild TBI (N 28), baseline 31.7 ± 13.0): 4.8
- CAPS-5 score (1-wk post, only participants meeting relevant MINI diagnostic criteria at baseline (N 23), baseline 35.7 ± 11.0): 4.4
- CAPS-5 % Reduction vs Baseline [3]: 87% ± 17%
- CAPS-5 Remission Rate [3]: 83%
- CAPS-5 Response Rate [3]: 96%
- CAPS-5 % Reduction vs Baseline [4]: 89% ± 14%
- CAPS-5 Remission Rate [4]: 89%
- CAPS-5 Response Rate [4]: 96%
- CAPS-5 score (1-wk. post, only participants with mild TBI (N 28), baseline 31.7 ± 13.0): 3.6
- CAPS-5, effect size D (baseline vs 1-mo. post, only participants meeting relevant MINI diagnostic criteria (N 23)): 2.98
- CAPS-5, effect size D (baseline vs 1-mo. post, only participants with mild TBI (N 28)): 2.49
- CAPS-5, effect size D (baseline vs 1-wk post, only participants with mild TBI (N 28)): 2.28
- CAPS-5, effect size D (baseline vs 1-wk. post, only participants meeting relevant MINI diagnostic criteria (N 23)): 2.75
- CAPS-5, effect size D (baseline vs one-month post, all participants): 2.54
- CAPS-5, effect size D (baseline vs one-week post, all participants): 2.30
- subjects lower than mild PTSD symptom severity (CAPS-5) (one month following treatment (FIG. 3B), mild = 12-22): 80%
- CAPS-5 Remission Rate (one-month post, 29 participants, remission = loss of diagnosis and total score below 12): 86%
- CAPS-5 Response Rate (one-month post, 29 participants, response = reduction of at least 10 points): 100%
- CAPS-5 score (one-month post, all participants, baseline 31.7 ± 12.5, mean ± SD): 4.8
- CAPS-5 % Reduction vs Baseline (one-month post, all participants, mean ± SD): 88% and 88% ± 17%
- CAPS-5 Remission Rate (one-week post, 29 participants, remission = loss of diagnosis and total score below 12): 86%
- CAPS-5 Response Rate (one-week post, 29 participants, response = reduction of at least 10 points): 97%
- CAPS-5 score (one-week post, all participants, baseline 31.7 ± 12.5, mean ± SD): 3.9
- CAPS-5 % Reduction vs Baseline (one-week post, all participants, mean ± SD): 88% ± 15%
